This is an account of results in patent US20260232578A1, “COMPOSITIONS AND METHODS FOR TRANSMUCOSAL ABSORPTION” (Tonix Pharma Limited, priority 2012, published 2026).

Assay [1] addresses T1, 5-HT2A (Homo sapiens, UniProt P28223).
T1 construct: expressed in transfected cells
The assay can be described thus: biochemical. It counts as binding. The conditions noted are these: for Ki: 5-HT2A.

The target in another assay is T2, adrenergic α1B receptor (Homo sapiens, UniProt P35368).
T2 construct: expressed in transfected cells
T2 sequence (P35368 1-520): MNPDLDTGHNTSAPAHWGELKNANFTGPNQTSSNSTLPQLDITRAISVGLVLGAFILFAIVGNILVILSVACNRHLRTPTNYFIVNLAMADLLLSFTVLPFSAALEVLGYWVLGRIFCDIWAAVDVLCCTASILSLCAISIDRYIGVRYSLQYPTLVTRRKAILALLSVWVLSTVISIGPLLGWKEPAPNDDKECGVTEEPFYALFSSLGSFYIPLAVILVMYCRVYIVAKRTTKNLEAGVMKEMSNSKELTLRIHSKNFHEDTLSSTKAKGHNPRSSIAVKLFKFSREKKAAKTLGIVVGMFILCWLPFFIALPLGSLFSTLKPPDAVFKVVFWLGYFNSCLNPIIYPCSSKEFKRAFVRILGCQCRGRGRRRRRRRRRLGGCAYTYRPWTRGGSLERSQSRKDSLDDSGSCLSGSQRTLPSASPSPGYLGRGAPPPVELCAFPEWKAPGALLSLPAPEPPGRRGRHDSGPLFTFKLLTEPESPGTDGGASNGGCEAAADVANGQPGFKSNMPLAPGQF
The assay can be described thus: G-protein-independent signal transduction, β-arrestin signaling. Type of assay: cell-based. The conditions noted are these: for IC50: α1B, β-arrestin signaling, read-out: IC50, functional antagonist.

In assay [2] the target is T3, muscarinic M1 receptor (Homo sapiens, UniProt P11229).
T3 sequence (P11229 1-460): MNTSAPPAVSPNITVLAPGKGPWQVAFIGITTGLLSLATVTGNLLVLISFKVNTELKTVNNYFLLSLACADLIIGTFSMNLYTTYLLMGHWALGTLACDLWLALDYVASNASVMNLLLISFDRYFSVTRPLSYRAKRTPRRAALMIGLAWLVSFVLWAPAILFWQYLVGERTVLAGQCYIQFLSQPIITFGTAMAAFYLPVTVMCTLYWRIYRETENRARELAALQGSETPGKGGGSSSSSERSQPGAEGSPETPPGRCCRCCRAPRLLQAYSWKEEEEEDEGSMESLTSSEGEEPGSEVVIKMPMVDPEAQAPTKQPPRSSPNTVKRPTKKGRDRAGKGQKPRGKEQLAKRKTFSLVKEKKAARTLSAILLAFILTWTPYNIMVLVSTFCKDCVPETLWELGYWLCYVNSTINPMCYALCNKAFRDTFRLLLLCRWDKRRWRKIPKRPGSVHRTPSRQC
The assay can be described thus: biochemical.

Assay [3] concerns the target T4, adrenergic alpha-2B receptor (Alpha2B) (Homo sapiens, UniProt P18089).
T4 construct: expressed in transfected cells
The assay can be described thus: Equilibrium receptor binding, recombinant human receptor.

A further assay concerns the target T5, D4.4 (Homo sapiens, UniProt P21917).
T5 construct: expressed in transfected cells
The assay is described as above.

Another assay deals with T6, histamine H1 receptor (Homo sapiens, UniProt P35367).
T6 construct: expressed in transfected cells
In words: G-protein-dependent signal transduction, intracellular Ca2+ mobilization. It counts as cell-based. The conditions noted are these: for IC50: H1, Ca2+ mobilization, read-out: IC50, functional antagonist. (In general: Calcium assays in cells follow changes in intracellular calcium, usually with a dye or a luminescent sensor.)

The target of the next assay is T7, 5-HT5A receptor (Homo sapiens, UniProt P47898).
T7 construct: expressed in transfected cells
In words: Equilibrium receptor binding, recombinant human receptor.

For another assay, the target named is α2B (Homo sapiens, UniProt P18089). The assay can be described thus: Functional antagonism, cAMP production. In general terms: Changes in cAMP serve as a functional read-out for many G protein-coupled receptors.
In assay [4] the target is T1, 5-HT2A. The assay can be described thus: G-protein-dependent signal transduction, turnover of inositol triphosphate (IP). Type of assay: cell-based. The conditions noted are these: read-out: IC50 (nM) (Antagonist).
Assay [5] deals with T3, muscarinic M1 receptor. The assay can be described thus: G-protein-dependent signal transduction, intracellular Ca2+ mobilization. It counts as cell-based. On the set-up: expressed in transfected cells. The conditions noted are these: for IC50: M1, Ca2+ mobilization, read-out: IC50, functional antagonist.
Assay [6] has as its target T1, 5-HT2A. In words: G-protein-independent signal transduction, β-arrestin signaling. It counts as cell-based. The conditions noted are these: for IC50: β-arrestin signaling, read-out: IC50, functional antagonist.
Another assay deals with T8, 5-HT2C (Homo sapiens, UniProt P28335).
T8 construct: expressed in transfected cells
In words: G-protein-dependent signal transduction, turnover of inositol triphosphate (IP). It counts as cell-based. The conditions noted are these: read-out: IC50 (nM) (Antagonist).

The target of the next assay is T9, 5-HT2C receptor (Homo sapiens, UniProt P28335).
T9 construct: expressed in transfected cells
T9 sequence (P28335 33-458): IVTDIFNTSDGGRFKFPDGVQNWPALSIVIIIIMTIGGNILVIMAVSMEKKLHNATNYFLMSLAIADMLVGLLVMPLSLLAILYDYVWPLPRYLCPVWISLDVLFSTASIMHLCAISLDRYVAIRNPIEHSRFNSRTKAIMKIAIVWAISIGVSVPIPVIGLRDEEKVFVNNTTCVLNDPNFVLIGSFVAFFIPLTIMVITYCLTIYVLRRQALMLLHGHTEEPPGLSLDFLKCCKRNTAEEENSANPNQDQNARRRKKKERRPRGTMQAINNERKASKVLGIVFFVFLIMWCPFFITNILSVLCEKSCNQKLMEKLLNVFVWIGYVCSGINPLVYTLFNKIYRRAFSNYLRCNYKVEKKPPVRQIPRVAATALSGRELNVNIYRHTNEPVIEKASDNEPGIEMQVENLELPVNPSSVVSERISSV
In words: Equilibrium receptor binding, recombinant human receptor.

The target of assay [7] is T10, adrenergic α1A receptor (Alpha1A) (Homo sapiens, UniProt P35348).
T10 construct: expressed in transfected cells
T10 sequence (P35348 1-466): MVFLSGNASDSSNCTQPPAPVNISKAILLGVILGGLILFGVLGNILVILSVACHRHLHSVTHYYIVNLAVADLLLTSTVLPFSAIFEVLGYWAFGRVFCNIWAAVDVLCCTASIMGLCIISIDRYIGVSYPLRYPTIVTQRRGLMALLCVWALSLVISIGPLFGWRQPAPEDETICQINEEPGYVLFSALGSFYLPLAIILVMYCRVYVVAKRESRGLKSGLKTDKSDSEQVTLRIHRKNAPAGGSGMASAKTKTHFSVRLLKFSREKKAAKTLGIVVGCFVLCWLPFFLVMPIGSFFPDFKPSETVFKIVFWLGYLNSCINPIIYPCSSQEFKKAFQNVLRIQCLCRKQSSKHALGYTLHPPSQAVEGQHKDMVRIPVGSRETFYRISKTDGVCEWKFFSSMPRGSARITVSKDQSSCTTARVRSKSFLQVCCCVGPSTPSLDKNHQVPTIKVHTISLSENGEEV
The assay is described as above. The following applies: for Ki: Alpha1A.

“And” between values parts separate entries of the source, which are not always exact repeats. Equal values may be shown once.

T1 sequence (P28223 whole entry): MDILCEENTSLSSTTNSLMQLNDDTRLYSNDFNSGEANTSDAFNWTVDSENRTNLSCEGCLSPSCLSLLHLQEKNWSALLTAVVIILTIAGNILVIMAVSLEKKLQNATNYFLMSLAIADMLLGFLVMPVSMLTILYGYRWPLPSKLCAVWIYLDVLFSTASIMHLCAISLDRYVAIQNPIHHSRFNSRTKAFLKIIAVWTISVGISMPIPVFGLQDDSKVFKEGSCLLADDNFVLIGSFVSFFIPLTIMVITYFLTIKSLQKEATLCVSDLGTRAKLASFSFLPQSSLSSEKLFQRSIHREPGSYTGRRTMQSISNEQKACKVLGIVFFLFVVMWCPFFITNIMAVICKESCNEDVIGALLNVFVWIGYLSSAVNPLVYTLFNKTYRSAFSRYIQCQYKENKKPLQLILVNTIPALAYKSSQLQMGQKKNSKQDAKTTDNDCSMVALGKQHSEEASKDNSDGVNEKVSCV
T6 sequence (P35367 whole entry): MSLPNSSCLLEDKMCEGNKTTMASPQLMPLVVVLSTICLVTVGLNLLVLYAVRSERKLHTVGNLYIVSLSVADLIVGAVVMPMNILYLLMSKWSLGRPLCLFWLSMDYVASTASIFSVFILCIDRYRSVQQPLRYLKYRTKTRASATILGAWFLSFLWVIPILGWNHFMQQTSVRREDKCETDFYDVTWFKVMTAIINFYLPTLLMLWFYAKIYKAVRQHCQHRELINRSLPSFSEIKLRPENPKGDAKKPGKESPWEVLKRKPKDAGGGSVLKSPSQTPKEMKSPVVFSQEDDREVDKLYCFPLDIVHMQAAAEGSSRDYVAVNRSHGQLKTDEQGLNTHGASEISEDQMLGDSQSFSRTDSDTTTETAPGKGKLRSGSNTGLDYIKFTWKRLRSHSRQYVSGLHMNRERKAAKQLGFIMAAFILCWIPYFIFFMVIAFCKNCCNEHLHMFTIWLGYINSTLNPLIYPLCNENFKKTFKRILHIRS
T5 sequence (P21917 whole entry): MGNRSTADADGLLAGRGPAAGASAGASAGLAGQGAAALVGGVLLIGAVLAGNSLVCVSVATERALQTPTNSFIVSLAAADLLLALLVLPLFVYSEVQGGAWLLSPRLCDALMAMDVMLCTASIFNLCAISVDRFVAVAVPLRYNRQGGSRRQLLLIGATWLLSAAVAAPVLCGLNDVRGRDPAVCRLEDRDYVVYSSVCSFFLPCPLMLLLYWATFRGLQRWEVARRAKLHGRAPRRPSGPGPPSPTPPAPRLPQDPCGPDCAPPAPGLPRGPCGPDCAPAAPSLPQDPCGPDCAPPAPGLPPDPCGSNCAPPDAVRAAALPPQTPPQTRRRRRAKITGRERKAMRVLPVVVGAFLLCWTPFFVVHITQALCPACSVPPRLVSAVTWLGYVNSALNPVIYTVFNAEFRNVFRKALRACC
T7 sequence (P47898 whole entry): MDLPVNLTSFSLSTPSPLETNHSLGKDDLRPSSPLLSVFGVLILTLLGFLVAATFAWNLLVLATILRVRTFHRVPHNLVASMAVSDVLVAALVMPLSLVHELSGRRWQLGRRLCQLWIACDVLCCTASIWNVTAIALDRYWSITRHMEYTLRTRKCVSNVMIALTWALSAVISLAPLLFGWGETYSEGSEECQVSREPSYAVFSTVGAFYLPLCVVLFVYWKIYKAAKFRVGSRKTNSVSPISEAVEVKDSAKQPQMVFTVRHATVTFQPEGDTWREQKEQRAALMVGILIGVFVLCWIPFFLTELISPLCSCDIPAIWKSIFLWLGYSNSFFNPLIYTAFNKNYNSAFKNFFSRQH
α2B, sequence (P18089 whole entry): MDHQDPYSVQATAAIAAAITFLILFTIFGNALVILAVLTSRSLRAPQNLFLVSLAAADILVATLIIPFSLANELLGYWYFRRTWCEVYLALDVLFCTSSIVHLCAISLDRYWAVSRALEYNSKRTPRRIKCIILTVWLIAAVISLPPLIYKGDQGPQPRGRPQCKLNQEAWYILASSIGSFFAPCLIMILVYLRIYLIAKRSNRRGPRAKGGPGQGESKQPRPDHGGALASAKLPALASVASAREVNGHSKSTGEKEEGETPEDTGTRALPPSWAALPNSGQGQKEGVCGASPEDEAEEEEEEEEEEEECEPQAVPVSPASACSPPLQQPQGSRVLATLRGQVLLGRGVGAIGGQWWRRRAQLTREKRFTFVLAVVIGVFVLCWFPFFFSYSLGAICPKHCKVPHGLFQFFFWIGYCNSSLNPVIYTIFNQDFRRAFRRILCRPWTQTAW
T4 sequence (P18089 whole entry): as above

As a reminder, the Ki is a measure of affinity in units of concentration, obtained from inhibition or displacement. The term IC50 denotes the concentration that inhibits the measured activity by half. For `CN(C)CCC=C1c2ccccc2C=Cc2ccccc21` [cyclobenzaprine, 3-(5H-dibenzo[a,d]cyclohepten-5-ylidene)-N,N-dimethyl-1-propanamine], the Ki on 5-HT2A [1] is 5.2 nM and 5.1 nM; at muscarinic M1 receptor [2] it was 7.9 nM; in assay [3], 21 nM; on D4.4, 180 nM; on 5-HT5A receptor, 730 nM; at 5-HT2C receptor, 5.2 nM and 43 nM. In assay [7], the Ki worked out at 5.6 nM. In addition, the concentration for half-maximal inhibition (IC50) was found to be 144 nM on adrenergic α1B receptor; 5.2 nM on histamine H1 receptor; 9.8 µM against α2B; 210 nM on 5-HT2A [4]; 0.71 nM on muscarinic M1 receptor [5]; 99 nM at 5-HT2A [6]. In addition, the 50% inhibitory concentration (IC50) on 5-HT2C was determined as 770 nM.
As to `CNCCC=C1c2ccccc2C=Cc2ccccc21` [norcyclobenzaprine, 3-(5H-dibenzo[a,d]cyclohepten-5-ylidene)-N-methyl-1-propanamine], the “Hill plot ratio (Hill slope)” value on 5-HT2A [1] was found to be 0.50; at 5-HT2C receptor (equilibrium binding), 1.40; in assay [7] (equilibrium binding, α-1A), 1.16. The Ki at 5-HT2A [1] was 13 nM and 13.2 nM; at muscarinic M1 receptor [2], 30 nM; in assay [3], 150 nM; at D4.4 it was 250 nM; at 5-HT5A receptor, 1600 nM; at 5-HT2C receptor, 43 nM. The Ki in [7] was 34 nM. In addition, the 50% inhibitory concentration (IC50) at adrenergic α1B receptor was found to be 173 nM; on histamine H1 receptor, 16 nM; on α2B, 41 µM; at 5-HT2A [4], 450 nM; on muscarinic M1 receptor [5], 8.7 nM; at 5-HT2A [6], 181 nM. Also, the IC50 on 5-HT2C is 2000 nM. Also, the “Four parameter Hill slope (or fit slope) ratio; β-arrestin signaling” value is reported as 0.70 on adrenergic α1B receptor (α-1B) and 1.11 on 5-HT2A [6]. In addition, the “Four parameter Hill slope (or fit slope) ratio; Ca2+ signaling” value was determined as 0.79 at histamine H1 receptor (H1) and 0.62 at muscarinic M1 receptor [5] (M1).
